Measurements as given in paper PMC11483378, “Triazole-Based Thiamine Analogues as Inhibitors of Thiamine Pyrophosphate-Dependent Enzymes: 1,3-Dicarboxylate for Metal Binding” (ACS Omega, 2024).

Legend:
[1] = target: A. viridans PO (Aerococcus viridans, UniProt A9X9K8); assay: A. viridans PO inhibitory activity assay (quinoneimine dye); type: biochemical; conditions: read-out: KM(TPP)
Description: A. viridans PO and horseradish peroxidase were purchased from Sigma. A. viridans PO activity was determined by monitoring appearance of quinoneimine dye at 550 nm using a microplate reader (CLARIOstar) and conducted as described[5] with some modifications. […] The reaction buffer (50 mM KH2PO4 and 10 mM MgCl2, pH 5.9) contained TPP at specified concentrations, 10 μM flavin adenine dinucleotide, 0.15% 4-aminoantipyrine, 0.3% N-ethyl-N-(2-hydroxy-3-sulfopropyl)-m-toluidine (EHSPT), 50 μg/mL horseradish peroxidase, and 0.35 U/mL A. viridans PO. The reaction mixture was preincubated at 37 °C with inhibitor for 30 min, and then the reaction was initiated by adding pyruvate to a final concentration of 50 mM. To determine the IC50, TPP concentration was set at 60 μM with varying inhibitor concentrations. One unit of PO activity is defined as the production of 1 μmol of hydrogen peroxide per minute. The IC50 values were calculated from nonlinear regression curve fitting using GraphPad Prism.
(§1) Enzyme inhibitory activity assays – methods and results (Figures S1-4) […]
(§2) The compound […]
A. viridans PO inhibitory activity assay. A. viridans PO and horseradish peroxidase were purchased from Sigma. A. viridans PO activity was determined by monitoring appearance of quinoneimine dye at 550 nm using a microplate reader (CLARIOstar) and conducted as described3 with some modifications. […]
buffer (50 mM KH2PO4 and 10 mM MgCl2, pH 5.9) contained TPP at specified concentrations, 10 µM flavin adenine dinucleotide (FAD), 0.15% 4-aminoantipyrine, 0.3% N-ethyl-N-(2-hydroxy-3-sulfopropyl)-m-toluidine (EHSPT), 50 µg/mL horseradish peroxidase and 0.35 U/mL A. viridans PO. The reaction mixture was preincubated at 37 °C with inhibitor for 30 min, then reaction was initiated by adding pyruvate to a final concentration of 50 mM. To determine the IC50, TPP concentration was set was set at 60 µM with varying inhibitor concentrations. One unit of PO activity is defined as the production of 1 μmol of hydrogen peroxide per minute. The IC 50 values were calculated from non-linear regression curve fitting using GraphPad Prism. […]

[2] = target: T1, Porcine PDH E1 (Sus scrofa, UniProt P29804); assay: Porcine PDH E1 inhibitory activity assay (DCPIP reduction); type: biochemical
T1 sequence (P29804 31-390): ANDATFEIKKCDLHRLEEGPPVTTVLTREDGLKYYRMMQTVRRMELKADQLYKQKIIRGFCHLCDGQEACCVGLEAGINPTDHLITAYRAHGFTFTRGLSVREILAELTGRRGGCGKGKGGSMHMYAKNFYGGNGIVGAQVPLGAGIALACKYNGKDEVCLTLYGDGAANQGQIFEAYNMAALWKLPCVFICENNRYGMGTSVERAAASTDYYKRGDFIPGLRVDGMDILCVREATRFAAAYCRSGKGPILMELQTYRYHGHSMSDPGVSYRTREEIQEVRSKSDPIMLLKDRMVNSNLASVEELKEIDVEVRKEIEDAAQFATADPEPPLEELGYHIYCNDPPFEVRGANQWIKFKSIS
Description: Porcine PDH E1 was purchased from Sigma. Porcine PDH E1 activity was determined by monitoring 2,6-dichlorophenolindophenol (DCPIP) reduction at 600 nm using a microplate reader (CLARIOstar) and conducted as described[5] with some modifications. […] The reaction buffer (50 mM KH2PO4 and 1 mM MgCl2, pH 7) contained thiamine pyrophosphate (TPP) at specified concentrations, 0.25 mM DCPIP, and 2 mg/mL porcine PDH E1. The reaction mixture was preincubated at 37 °C with the inhibitor for 30 min, and then the reaction was initiated by adding pyruvate to a final concentration of 50 mM. To determine the half-maximal inhibitory concentration (IC50), the TPP concentration was set at 60 μM with varying inhibitor concentrations. Specific activity was calculated using the molar extinction coefficient of DCPIP, 21 mM^–1 cm^–1.[28] The IC50 values were calculated from nonlinear regression curve fitting using GraphPad Prism.
Porcine PDH E1 inhibitory activity assay. Porcine PDH E1 was purchased from Sigma. Porcine PDH E1 activity was determined by monitoring 2,6-dichlorophenolindophenol (DCPIP) reduction at 600 nm using a microplate reader (CLARIOstar) and conducted as described3 with some modifications. The […]
buffer (50 mM KH2PO4 and 1 mM MgCl2, pH 7) contained thiamine pyrophosphate (TPP) at specified concentrations, 0.25 mM 2,6-dichlorophenolindophenol (DCPIP), and 2 mg/mL porcine PDH E1. The reaction mixture was preincubated at 37 °C with the inhibitor for 30 min, then reaction was initiated by adding pyruvate to a final concentration of 50 mM. To determine the half-maximal inhibitory concentration (IC50), TPP concentration was set at 60 µM with varying inhibitor concentrations. […]
values were calculated from non-linear regression curve fitting using GraphPad Prism. […]

[3] = target: E. coli OGDH E1 (Escherichia coli, UniProt P0AFG3); assay: E. coli OGDH E1 inhibitory activity assay (DCPIP reduction); type: biochemical; conditions: compound at 200 μM, assay conditions of previous study
Chain of E. coli OGDH E1 (P0AFG3 whole entry): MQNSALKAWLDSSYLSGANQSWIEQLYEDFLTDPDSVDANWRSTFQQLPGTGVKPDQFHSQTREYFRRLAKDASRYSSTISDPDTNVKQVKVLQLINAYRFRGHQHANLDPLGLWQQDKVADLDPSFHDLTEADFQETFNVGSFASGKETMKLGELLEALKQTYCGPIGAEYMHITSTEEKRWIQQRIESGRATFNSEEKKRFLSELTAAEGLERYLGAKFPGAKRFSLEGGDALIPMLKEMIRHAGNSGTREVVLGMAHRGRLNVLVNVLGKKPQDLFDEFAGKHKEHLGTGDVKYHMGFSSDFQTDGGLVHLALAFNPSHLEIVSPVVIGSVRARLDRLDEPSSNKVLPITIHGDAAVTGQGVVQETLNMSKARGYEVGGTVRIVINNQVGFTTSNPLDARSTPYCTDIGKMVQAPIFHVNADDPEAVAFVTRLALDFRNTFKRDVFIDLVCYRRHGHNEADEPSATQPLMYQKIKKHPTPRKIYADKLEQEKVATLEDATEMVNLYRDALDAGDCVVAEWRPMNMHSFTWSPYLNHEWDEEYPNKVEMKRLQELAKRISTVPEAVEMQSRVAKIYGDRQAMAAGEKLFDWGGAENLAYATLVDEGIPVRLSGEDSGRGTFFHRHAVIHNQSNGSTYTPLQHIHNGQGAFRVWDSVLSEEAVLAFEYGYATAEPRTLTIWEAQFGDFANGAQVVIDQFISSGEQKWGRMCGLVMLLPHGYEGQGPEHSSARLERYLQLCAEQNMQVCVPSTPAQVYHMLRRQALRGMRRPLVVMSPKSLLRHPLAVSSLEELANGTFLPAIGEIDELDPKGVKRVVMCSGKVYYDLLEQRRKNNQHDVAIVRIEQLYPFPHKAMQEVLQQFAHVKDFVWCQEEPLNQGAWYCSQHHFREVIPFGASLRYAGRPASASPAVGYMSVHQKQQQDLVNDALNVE
Description: E. coli OGDH E1 was from material donated by R. Frank. E. coli OGDH E1 activity was determined by monitoring DCPIP reduction at 600 nm using a microplate reader (CLARIOstar) and conducted as described[5] with some modifications. […] The reaction buffer (50 mM KH2PO4 and 2 mM MgCl2, pH 7) contained TPP at specified concentrations, 0.5 mM DCPIP, and 6.7 mg/mL E. coli OGDH E1. The reaction mixture was preincubated at 37 °C with the inhibitor for 60 min, and then the reaction was initiated by adding α-ketoglutarate to a final concentration of 10 mM. To determine the IC50, the TPP concentration was set at 60 μM with varying inhibitor concentrations. Specific activity was calculated using the molar extinction coefficient of DCPIP, 21 mM^–1 cm^–1.[28] The IC50 values were calculated from nonlinear regression curve fitting using GraphPad Prism.
as §1, §2
E. coli OGDH E1 inhibitory activity assay. E. coli OGDH E1 was from material donated by R. Frank. E. coli OGDH E1 activity was determined by monitoring DCPIP reduction at 600 nm using a microplate reader (CLARIOstar) and conducted as described3 with some modifications. The percentage inhibition of compounds against E. coli OGDH E1 was assayed at 250 μM. The reaction buffer (50 mM KH 2PO4 and 2 mM MgCl2, pH 7) contained TPP at specified concentrations, 0.5 mM DCPIP, and 6.7 mg/ml E. coli OGDH E1. The reaction mixture was preincubated at 37 °C with the inhibitor for 60 min, then reaction was initiated by adding α-ketoglutarate to a final concentration of 10 mM. To determine the IC50, TPP concentration was set at 60 µM with varying inhibitor concentrations. Specific activity was […]

[4] = PAMPA (parallel artificial membrane permeability assay); type: in vitro ADME
Description: PAMPA – methods and results (Table S2)
PAMPA was carried out in 96-well microtiter filter plates obtained from Millipore as described1 with some modifications. Each well of the filter plate was impregnated with 15 µL of 5% hexadecane dissolved in hexane (i.e. total amount of hexadecane: 0.75 µL) for at least 10 minutes in ventilated environment to allow for complete evaporation of hexane. Donor compartments were filled with 200 µL compound-containing donor solutions of compounds dissolved in 5% DMSO, phosphate buffered saline PBS) and connected to acceptor plate prefilled with buffer (5% DMSO in PBS, pH 7.4). The resulting sandwich was incubated at room temperature under gentle shaking and wrapped in wet paper towels to avoid evaporation. After 10 hours, the sandwich was disassembled and the solutions in the acceptor and donor were transferred to a disposable UV-transparent plate. UV absorption was measured at wavelengths between 220 and 340 nm using a microplate reader (CLARIOstar).
Compounds were tested at 500 µM. Calibration to determine concentration of compounds were performed with varying compound concentrations in buffer (5% DMSO in PBS).
The artificial membrane permeability is expressed as fraction absorbed (Fa%)2 or log Pe (log of the effective permeability)1. LogD values at pH 7.4 were calculated using MarvinSketch.
Fa% = 100 ∙CA ∙VA / CD0 ∙ VD where: CA = final drug concentration in the acceptor well (µM)
VA = volume in the acceptor well (cm3)
CD0 = Initial drug concentration in the donor well (µM)
VD = volume in the donor well (cm3) log P (cm/s) = log -ln 1-CA/Cequilibrium
S = surface area (cm2), typically 0.268 cm2
Cequilibrium = theoretical equilibrium concentration = [CD ∙VD+CA ∙VA] / [VD+VA] where: CD = final drug concentration in the donor well (µM)
CA = final drug concentration in the acceptor well (µM)
Table S2. Permeability data.
Compounds Fa (%) PAMPA log Pe (cm/s) cLogD (pH = 7.4)

[5] = Solubility in aqueous buffer / enzyme assay conditions; type: physicochemical
[6] = substrate: Cc1ncc(C[n+]2csc(CCO[P@](=O)(O)OP(=O)(O)O)c2C)c(N)n1; assay: S. cerevisiae PDC inhibitory activity assay (DCPIP reduction); type: biochemical, Saccharomyces cerevisiae; conditions: 37.0 °C
Description: S. cerevisiae PDC was purchased from Sigma. S. cerevisiae PDC activity was determined by monitoring DCPIP reduction at 600 nm using a microplate reader (CLARIOstar) and conducted as described[5] with some modifications. […] The reaction buffer (50 mM KH2PO4 and 1 mM MgCl2, pH 7) contained TPP at specified concentrations, 0.27 mM DCPIP, and 0.15 mg/mL S. cerevisiae PDC. The reaction mixture was preincubated at 37 °C with the inhibitor for 60 min, and then the reaction was initiated by adding pyruvate to a final concentration of 70 mM. […] Specific activity was calculated using the molar extinction coefficient of DCPIP, 21 mM^–1 cm^–1.[28] The IC50 values were calculated from nonlinear regression curve fitting using GraphPad Prism.
as §1, §2
S. cerevisiae PDC inhibitory activity assay. S. cerevisiae PDC was purchased from Sigma. S. cerevisiae PDC activity was determined by monitoring DCPIP reduction at 600 nm using a microplate reader (CLARIOstar) and conducted as described3 with some modifications. The percentage inhibition of compounds against S. cerevisiae PDC was assayed at 750 μM. The reaction buffer (50 mM KH 2PO4 and 1 mM MgCl2, pH 7) contained TPP at specified concentrations, 0.27 mM DCPIP, and 0.15 mg/ml S. cerevisiae PDC. […]
calculated from non-linear regression curve fitting using GraphPad Prism. […]

Chain of A. viridans PO (A9X9K8 entry or part of it): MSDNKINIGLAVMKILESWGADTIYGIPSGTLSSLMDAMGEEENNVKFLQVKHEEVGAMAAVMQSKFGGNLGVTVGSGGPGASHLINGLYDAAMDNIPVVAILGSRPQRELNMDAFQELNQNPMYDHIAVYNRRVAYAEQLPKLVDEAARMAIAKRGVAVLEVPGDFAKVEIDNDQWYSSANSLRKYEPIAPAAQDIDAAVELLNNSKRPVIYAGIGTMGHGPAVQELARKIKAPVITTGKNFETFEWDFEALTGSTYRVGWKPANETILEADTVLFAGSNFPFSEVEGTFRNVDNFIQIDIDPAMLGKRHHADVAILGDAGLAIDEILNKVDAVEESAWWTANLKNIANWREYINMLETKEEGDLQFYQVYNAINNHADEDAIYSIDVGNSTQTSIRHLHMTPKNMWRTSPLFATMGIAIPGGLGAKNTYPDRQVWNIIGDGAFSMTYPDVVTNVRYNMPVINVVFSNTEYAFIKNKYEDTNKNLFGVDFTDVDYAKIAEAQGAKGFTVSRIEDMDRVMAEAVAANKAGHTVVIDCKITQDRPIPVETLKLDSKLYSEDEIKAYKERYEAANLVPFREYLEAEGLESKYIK

Question: For `Cc1ncc(C[n+]2csc(CCO[P@](=O)(O)OP(=O)(O)O)c2C)c(N)n1` [TPP, thiamine pyrophosphate], which Km [1] is on record?
Answer: Its Km is 5 µM.

Question: With `CCC(CC)COC(=O)[C@H](C)NP(=O)(OCCc1cn(Cc2cnc(C)nc2N)nn1)Oc1ccccc1` (stereo partly drawn) [compound 12] as the molecule, how does the inhibition ([2]; compound at 10 μM, assay conditions of previous study) read?
Answer: Its inhibition is “no inhibition”.

Question: And the inhibition ([2]; compound at 100 μM)?
Answer: The inhibition was “no inhibition”.

Question: What about the inhibition [3] of the same molecule?
Answer: Its inhibition is “no inhibition”.

Question: And the “membrane permeability in PAMPA (in words)” value ([4]; PAMPA)?
Answer: The value was “membrane-permeable”.

Question: What about the Papp at 10 h, 500 µM ([4]; PAMPA, compounds at 500 µM, 5% DMSO in PBS pH 7.4, 10 hours, room temperature, read-out: PAMPA log Pe (converted)) of the same molecule?
Answer: The Papp at 10 h, 500 µM was 7.94 ×10⁻⁶ cm/s.

Question: And the “Fa (fraction absorbed)” value ([4]; compounds at 500 µM, 5% DMSO in PBS pH 7.4, 10 hours, room temperature)?
Answer: Its value is 48%.

Question: What about the “solubility under the enzyme assay conditions” value ([5]; OGDH E1 assay, 300 μM) of the same molecule?
Answer: The value was “insufficiently soluble”.

Question: What about the solubility ([5]; PBS with 5% DMSO, aqueous with cosolvent or surfactant or cyclodextrin, kinetic from dmso stock, read-out: solubility in aqueous environments) of the same molecule?
Answer: The solubility was less than 300 µM.

Question: And the “solubility under the enzyme assay conditions” value ([5]; PDC assay conditions, 1300 μM)?
Answer: Its value is “not sufficiently soluble”.

Question: What about the “solubility under the enzyme assay conditions” value ([5]; PO assay conditions, 400 μM) of the same molecule?
Answer: Its value is “not sufficiently soluble”.

B1: S. cerevisiae PDC (Saccharomyces cerevisiae S288C) (protein)
chain: SEITLGKYLFERLKQVNVNTVFGLPGDFNLSLLDKIYEVEGMRWAGNANELNAAYAADGYARIKGMSCIITTFGVGELSALNGIAGSYAEHVGVLHVVGVPSISAQAKQLLLHHTLGNGDFTVFHRMSANISETTAMITDIATAPAEIDRCIRTTYVTQRPVYLGLPANLVDLNVPAKLLQTPIDMSLKPNDAESEKEVIDTILALVKDAKNPVILADACCSRHDVKAETKKLIDLTQFPAFVTPMGKGSIDEQHPRYGGVYVGTLSKPEVKEAVESADLILSVGALLSDFNTGSFSYSYKTKNIVEFHSDHMKIRNATFPGVQMKFVLQKLLTTIADAAKGYKPVAVPARTPANAAVPASTPLKQEWMWNQLGNFLQEGDVVIAETGTSAFGINQTTFPNNTYGISQVLWGSIGFTTGATLGAAFAAEEIDPKKRVILFIGDGSLQLTVQEISTMIRWGLKPYLFVLNNDGYTIEKLIHGPKAQYNEIQGWDHLSLLPTFGAKDYETHRVATTGEWDKLTQDKSFNDNSKIRMIEIMLPVFDAPQNLVEQAKLTAATNAKQ
notes: purchased Sigma
Question: With B1 as the molecule, how does the Km [6] read?
Answer: The Km was 15 µM.
